Experimental data as given in patent publication US10315994B2, “Photostable compounds, absorbing compounds and uses thereof” (Commonwealth Scientific and Industrial Research Organisation, priority 2015, dated 2019).

Key:
Type in all cases: physicochemical
[1] = Solubility in sunscreen formulation / 3% solution in EtOH:capric/caprylic triglyceride:C12-C15 alkyl benzoate; conditions: for Solubility in standard commercial sunscreen formulations: e.g. 3% solution in 2:1:1 EtOH:capric/caprylic triglyceride:C12-C15 alkyl benzoate
Protocol: In one embodiment, the compounds may provide for improved solubility or stability in standard compositions, including sunscreen compositions. […] Such solubility may be measured by generating, for example, a 3% solution of the relevant compound in 2:1:1 EtOH:capric/caprylic triglyceride:C12-C15 alkyl benzoate.
(§1) 1 mL of a 3% solution of the test compound (30 mg of test compound in 1 mL solvent) was prepared in a solvent mix made up of 50% EtOH and 25% capric/caprylic triglyceride and 25% C12-C15 alkyl benzoate. 50 μL of this solution (containing 1.5 mg of test compound) was added carefully to the centre of a glass microscope slide and the volatile components left to evaporate in the dark for at least 3 hours to give a liquid film. The prepared films were then exposed for 1 hour to an Eimac 150 W xenon arc lamp filtered through Pyrex (15 Amp supply current, samples 19 cm from the lamp) previously allowed to warm up for 15 minutes prior to sample exposure. The irradiation was performed in a fume cupboard where the air flow was sufficient to keep sample T<30° C. One hour's exposure represented a calculated radiation dose (using meter) of approximately 100 MED.

[2] = Photostability of thin films exposed to xenon arc lamp; conditions: for % λmax (% of original absorbance remaining): absorbance at λmax, irradiated vs unirradiated; for % λmax (% of original absorbance remaining) / % abs total (% of original absorbance remaining): xenon arc lamp 1 hour, thin film; for Photostability, % remaining after irradiation: exposure to the lamp for 1 h; for % abs total (% of original absorbance remaining): sum of absorbance 290-400 nm
Protocol: as §1, with “The prepared films were then exposed for 1 hour to an Eimac 150 W xenon arc lamp filtered through Pyrex (15 Amp supply current, samples 19 cm from the lamp) previously allowed to warm up for 15 minutes prior to sample exposure.” left out
In order to calculate the photostability of the test compounds, the exposed slides were placed in a beaker and rinsed with 2×5 mL EtOH, 1×5 mL MeOH. The combined washings were then added to a 100 mL volumetric flask and made up to 100 mL total volume with methanol. The UV absorbance was then measured in a 10 mm cuvette. The percent stability is measured as the ratio of absorbance at λmax for the irradiated sample compared to the unirradiated sample. As a further measure, a comparison of the sum of the absorbance in the 290-400 nm range was calculated.
The thin films are a good surrogate for testing the stability of a candidate in a sunscreen formulation as they use cosmetic emollients as solvent and are formed at cosmetically relevant concentrations.

[3] = UV/visible absorbance characteristics (λmax, λcrit, ε, E 1%,1 cm); conditions: for ε: in M-1 cm-1 (unit assumed); for Peak point of absorbance curve (figure legend): unirradiated control, FIGS. 3-5

SMILES | Solubility in standard commercial sunscreen formulations [1] | E (1%, 1 cm) ([3]; Table 5) | λcrit ([3]; Table 5) [nm] | λmax ([3]; Table 5) [nm] | ε ([3]; Table 5) | Photostability (%) ([2]; Table 5) | also measured
CC(C)=CCCC(C)CC(=O)C1=CN(c2ccc(N3C=C(C(=O)CC(C)CCC=C(C)C)C(C)(C)CC3)cc2)CCC1(C)C (stereo not shown) [Compound 155] | readily soluble |  |  |  |  |  | 
CCCCC(CC)COC(=O)CCC(=O)C1=CN(c2ccc(N3C=C(C(=O)CCC(=O)OCC(CC)CCCC)C(C)(C)CC3)cc2)CCC1(C)C (stereo not shown) [Compound 153] | readily soluble |  |  |  |  |  | % λmax (% of original absorbance remaining) [2]: 52%
CC1(C)CCN(C(C)(C)C)C=C1C(=O)C(F)F |  | 1371 | 331 | 313 | 30868 | 43 | 
CCCOC(=O)CCC(=O)C1=CN(c2ccc(N3C=C(C(=O)CCC(=O)OCCC)C(C)(C)CC3)cc2)CCC1(C)C [Compound 152] | readily soluble |  |  |  |  |  | 
CC1(C)CCN(C(C)(C)C)C=C1C(=O)CF |  | 1655 | 326 | 310 | 37586 | 30 | 
CC1(C)CCN(c2cccc(N3C=C(C(=O)C(F)(F)F)C(C)(C)CC3)c2)C=C1C(=O)C(F)(F)F [Compound 160] |  |  |  |  |  |  | E (1%, 1 cm) ([3]; Table 1): 1380; λcrit ([3]; Table 1): 364 nm; λmax ([3]; Table 1): 346 nm; ε ([3]; Table 1): 67344; E (1%, 1 cm) ([3]; Table 4): 1380; ε ([3]; Table 4): 67344; Photostability (% remains) ([2]; after 1.5 h irradiation): 99 (after 1.5 h, others = 1 h) %
CC1(C)CCN(C(C)(C)C)C=C1C(=O)C(F)(F)C(F)(F)C(F)(F)C(=O)C1=CN(C(C)(C)C)CCC1(C)C [Compound 168] |  |  |  |  |  |  | E (1%, 1 cm) ([3]; Table 6): 1177; λcrit ([3]; Table 6): 337 nm; λmax ([3]; Table 6): 317 nm; ε ([3]; Table 6): 63346; Solubility for determination of photostability ([1]; solvent mix of the photostability method): not sufficiently soluble
CC(F)(F)C(=O)C1=CN(C(C)(C)C)CCC1(C)C |  | 1285 | 331 | 314 | 33288 | 49 | 
COc1ccc(N2C=C(C(=O)C(F)(F)F)C(C)(C)CC2)cc1N1C=C(C(=O)C(F)(F)F)C(C)(C)CC1 |  | 1094 | 364 | 340 | 56720 | 100 | 
CC1(C)CCN(C(C)(C)C)C=C1C(=O)C(Br)(Br)Br [drawing 125] |  | 321 | 361 | 330 | 14203 | 13 | 
CN(CCCCCCN(C)c1ccc(C(=O)C2=CN(C(C)(C)C)CCC2(C)C)cc1)c1ccc(C(=O)C2=CN(C(C)(C)C)CCC2(C)C)cc1 [Compound 109] |  |  |  |  |  |  | λcrit ([3]; Table 1): 364 nm; Photostability, % remaining after irradiation [2]: 22%
CC1(C)CCN(C(C)(C)C)C=C1C(=O)C(F)(F)F [Compound 98] |  |  |  |  |  |  | E (1%, 1 cm) ([3]; Table 1): 1380; λcrit ([3]; Table 1): 331 nm; λmax ([3]; Table 1): 315 nm; ε ([3]; Table 1): 36298; E (1%, 1 cm) ([3]; Table 6): 1380; λcrit ([3]; Table 6): 331 nm; λmax ([3]; Table 6): 315 nm; ε ([3]; Table 6): 36298; Peak point of absorbance curve (figure legend) [3]: approximately 320 nm; Photostability (%) ([2]; Table 6): 89%; % λmax (% of original absorbance remaining) [2]: 88%; Photostability, % remaining after irradiation [2]: 88%; % abs total (% of original absorbance remaining) [2]: 84%
CC1(C)CCN(C(C)(C)C)C=C1C(=O)CCCCCCCCC(=O)C1=CN(C(C)(C)C)CCC1(C)C [Compound 54] |  |  |  |  |  |  | E (1%, 1 cm) ([3]; Table 6): 1197; ε ([3]; Table 6): 59850; Peak point of absorbance curve (figure legend) [3]: approximately 310 nm; Photostability (%) ([2]; Table 6): 63%; % λmax (% of original absorbance remaining) [2]: 63%; % abs total (% of original absorbance remaining) [2]: 61%
CC1(C)CCN(c2ccc(N3C=C(C(=O)CCC(F)(F)F)C(C)(C)CC3)cc2)C=C1C(=O)CCC(F)(F)F [Compound 157] | readily soluble |  |  |  |  |  | % λmax (% of original absorbance remaining) [2]: 54%
CC1(C)CCN(C(C)(C)C)C=C1C(=O)C(Cl)(Cl)Cl [drawing 124] |  | 497 | 361 | 334 | 16618 | 5 | 
CC(C)=CCCC(C)CC(=O)C1=CN(c2ccc(N3C=C(C(=O)CC(C)CCC=C(C)C)C(C)(C)CC3)cc2)CCC1(C)C (stereo not shown) [Compound 154] | readily soluble |  |  |  |  |  | 
